Experimental data published in patent US5302610A, “Renal-selective biphenylmethyl imidazole angiotensin II antagonists for treatment of hypertension” (G. D. Searle & Co., priority 1991, dated 1994).

How the values were obtained:
angiotensin II = conditions: binding experiments, functional assays and in vivo tests; cited from earlier work
dopa-decarboxylase = conditions: in vivo; cited from earlier work
kidney = conditions: normal subjects; cited from earlier work
angiotensin II receptors = conditions: cited from earlier work
guanylate cyclase = conditions: cited from earlier work
[1] = in vivo; cited from earlier work
[2] = tested on: response to angiotensin II (urinary sodium excretion); assay: Assay E: Urinary Sodium Excretion, acute administration with AII infusion; format: in vivo, male Sprague-Dawley rats, conscious; conditions: for Urinary Sodium Excretion: means±SE
Method: (§1) antagonist compound (Ex. #5) and a glutamyl conjugate (Ex. #81) of the Ex. #5 AII antagonist compound to determine the renal selectivity of the conjugate. Male Sprague-Dawley rats (300-350 g body weight) had catheters implanted into the femoral artery and vein under chloral hydrate anesthesia (400 mg/kg, i.p.). After 2 to 4 days of recovery, on the experimental day, a urinary bladder catheter was implanted under methohexital anesthesia (50 mg/kg, i.p.). Rats were placed in a restraint device to allow for urine collection and mean arterial pressure measurements. After 1-2 hours of recovery, in conscious rats, an isotonic saline infusion (50 μl/min) was started and continued for the duration of the experiment. After one hour equilibration to the saline infusion, a 20 minute control urine and mean arterial pressure collection were obtained. Then angiotensin II was infused at 20 ng/min for 25 minutes. After 5 minutes of angiotensin II infusion, a 20 minute experimental collection was made. Finally, 5 minutes after the end of angiotensin II infusion, a 20 minute recovery collection was obtained. In separate groups of rats, vehicle (0.3 ml isotonic saline, i.v. bolus), Example #5 angiotensin II antagonist compound (100 mg/kg, i.v. bolus), or Example #81 conjugate (100 mg/kg, i.v. bolus) was administered 1-2 minutes prior to onset of angiotensin II infusion. […] Results are shown in Tables XIII and XIV and also in FIGS. 3 and 4. Data are presented as means±SE. Repeated measures analysis of variance was used for main effects and interactions and Tukey's HSD test was used for pairwise comparisons among means. Statistical significance was defined as p<0.05.

[3] = tested on: response to angiotensin II (mean arterial pressure); assay: Assay E: Mean Arterial Pressure, acute administration with AII infusion; format: in vivo, male Sprague-Dawley rats, conscious; conditions: for Mean Arterial Pressure: n = 6, means±SE
Method: as §1

[4] = tested on: non-renal, vascular angiotensin II receptors; assay: Assay D: AII Pressor Response during chronic infusion of conjugate; format: in vivo, spontaneously hypertensive rats (SHR); conditions: for AII Pressor Response (MAP): AII 100 ng/kg bolus
Method: (§2) This in vivo experiment was conducted to characterize the effects of the Example 81 conjugate on spontaneously hypertensive rats (SHR) by acute administration i.v. and by chronic administration i.v. The Example 81 compound or saline vehicle was infused continuously for four days in SHR. Mean arterial pressure was measured (Gould Chart Recorder, model 3800; Statham P23Db pressure transducer) via an indwelling femoral artery catheter between 10:00 A. M. and 2:00 P. M. each day. The Example 81 conjugate (10 mg/hr) or saline was infused via a jugular vein catheter with a Harvard infusion pump. […] A test was conducted to determine whether the Example 81 conjugate would antagonize non-renal, vascular angiotensin II receptors. In this test AII was administered by bolus injection (100 ng/kg) to the SHR rats (described above) on the control day and on days 1, 2 and 3 during conjugate infusion.

[5] = tested on: spontaneously hypertensive rats (SHR); assay: Assay D: Mean Arterial Pressure, chronic infusion of conjugate; format: in vivo
Method: as §2

[6] = tested on: γ-glutamyl transpeptidase; conditions: dogs; cited from earlier work
[7] = 100 mg/kg i.v. bolus, Recovery after AII infusion
[8] = 100 mg/kg i.v. bolus, during AII infusion 20 ng/min, * in table
[9] = 100 mg/kg, i.v. bolus, AII 20 ng/min
[10] = Control day (baseline before infusion)

## CCCCc1nc(Cl)c(CC(=O)O)n1Cc1ccccc1Cl [2-n-butyl-4-chloro-1-(2-chlorobenzyl)imidazole-5-acetic acid]
Angiotensin II
  angiotensin II antagonist activity: specific competitive angiotensin II antagonist activity

## CCCCc1nc(Cl)c(CC(=O)O)n1Cc1ccccc1[N+](=O)[O-] [2-butyl-4-choloro-1-(2-nitrobenzyl)imidazole-5-acetic acid]
Angiotensin II
  angiotensin II antagonist activity: specific competitive angiotensin II antagonist activity

## N[C@@H](CCC(=O)N[C@@H](Cc1ccc(O)c(O)c1)C(=O)O)C(=O)O [gludopa, γ-L-glutamyl-L-dopa]
dopa-decarboxylase
  blockade of activity by the dopa-decarboxylase inhibitor carbidopa: activity can be blocked by the dopa-decarboxylase inhibitor carbidopa
kidney
  kidney specificity: relatively specific for the kidney
  renal blood flow, glomerular filtration and urinary sodium excretion: increase renal blood flow, glomerular filtration and urinary sodium excretion in normal subjects

## CNCC(=O)N[C@@H](CCCN=C(N)N)C(=O)N[C@H](C(=O)N[C@@H](Cc1ccc(O)cc1)C(=O)N[C@H](C(=O)N[C@@H](Cc1cnc[nH]1)C(=O)N1CCC[C@H]1C(=O)N[C@@H](C)C(=O)O)C(C)C)C(C)C [Saralasin]
Angiotensin II receptors
  residual agonist activity: have a significant residual agonist activity

## CCCCc1ccc(NN)nc1 [2-hydrazino-5-n-butylpyridine]
Guanylate cyclase
  guanylate cyclase activity: stimulates guanylate cyclase activity

## CCCCc1ccc(NNC(=O)CCC(NC(C)=O)C(=O)O)nc1 (stereo not drawn)
[1]
  renal vasodilation: provided selective renal vasodilation

## CCCCc1nc(Cl)c(CO)n1Cc1ccc(-c2ccccc2C(=O)NNC(=O)CC[C@H](NC(C)=O)C(=O)O)cc1 [Example 81, N-acetyl-L-glutamic acid, 5-[[4'-[2-butyl-4-chloro-5-(hydroxymethyl)-1H-imidazol-1-ylmethyl][1,1'-biphenyl]-2-yl]carbonyl]hydrazide]
[2]; [7]
  Urinary Sodium Excretion: 1.8 ± 0.4 μEq/min/100 g BW
[2]; [8]
  Urinary Sodium Excretion: 4.1 ± 1.3 μEq/min/100 g BW
[2]; [9]
  antinatriuretic (urinary sodium excretion) response to angiotensin II: prevented the antinatriuretic response to angiotensin II
  urinary sodium excretion during angiotensin II infusion: actually increased urinary sodium excretion
[2]; Control period (before dosing)
  Urinary Sodium Excretion: 1.3 ± 0.3 μEq/min/100 g BW
[3]; [7]
  Mean Arterial Pressure: 121 ± 4 mm Hg
[3]; [8]
  Mean Arterial Pressure: 151 ± 4 mm Hg
[3]; [9]
  mean arterial pressure response to angiotensin II: had no effect on the mean arterial pressure response
[3]; Control period (before dosing)
  Mean Arterial Pressure: 117 ± 3 mm Hg
[4]; 10 mg/hr i.v. infusion, days 1, 2 and 3
  systemic angiotensin II receptor antagonism: No evidence for systemic angiotensin II receptor antagonism was observed
[4]; 10 mg/hr i.v. infusion, day 1
  AII Pressor Response (MAP): 45 mm Hg
[4]; 10 mg/hr i.v. infusion, day 2
  AII Pressor Response (MAP): 65 mm Hg
[4]; 10 mg/hr i.v. infusion, day 3
  AII Pressor Response (MAP): 60 mm Hg
[4]; [10]
  AII Pressor Response (MAP): 44 mm Hg
[5]; 10 mg/hr i.v. infusion, SHR
  mean arterial pressure as compared to saline vehicle control: lowered mean arterial pressure as compared to the saline vehicle control
[5]; 10 mg/hr i.v. infusion, day 1
  Mean Arterial Pressure (MAP): 148 mm Hg
[5]; 10 mg/hr i.v. infusion, day 2
  Mean Arterial Pressure (MAP): 135 mm Hg
[5]; 10 mg/hr i.v. infusion, day 3
  Mean Arterial Pressure (MAP): 140 mm Hg
[5]; [10]
  Mean Arterial Pressure (MAP): 163 mm Hg

## N[C@@H](CCC(=O)NCCc1ccc(O)c(O)c1)C(=O)O [L-γ-glutamyl amide of dopamine]
[6]
  generation of dopamine in vivo: generate dopamine in vivo by specific enzymatic cleavage by γ-glutamyl transpeptidase

## angiotensin II: an octapeptide which is the primary active species of this system (DRVYIHPF; Angiotensin-2; UniProt P01019 25-32, looked up) [reference compound]
[2]; AII 20 ng/min for 25 minutes
  effect of angiotensin II infusion on urinary sodium excretion: decreased urinary sodium excretion
[3]; AII 20 ng/min for 25 minutes
  effect of angiotensin II infusion on mean arterial pressure: increased mean arterial pressure
